Tests used:
[1] = organism: Rattus norvegicus; assay: Selectivity for rat DAT over rat SERT
[2] = molecular target: Sodium-dependent serotonin transporter (Rattus norvegicus, UniProt P31652); assay: Displacement of [125I]RTI55 from SERT in rat brain synaptosomes; type: subcellular
[3] = molecular target: Sodium-dependent dopamine transporter (Rattus norvegicus, UniProt P23977); assay: Displacement of [125I]RTI55 from DAT in rat brain synaptosomes; type: subcellular
Sequence of Sodium-dependent dopamine transporter (P23977 whole entry): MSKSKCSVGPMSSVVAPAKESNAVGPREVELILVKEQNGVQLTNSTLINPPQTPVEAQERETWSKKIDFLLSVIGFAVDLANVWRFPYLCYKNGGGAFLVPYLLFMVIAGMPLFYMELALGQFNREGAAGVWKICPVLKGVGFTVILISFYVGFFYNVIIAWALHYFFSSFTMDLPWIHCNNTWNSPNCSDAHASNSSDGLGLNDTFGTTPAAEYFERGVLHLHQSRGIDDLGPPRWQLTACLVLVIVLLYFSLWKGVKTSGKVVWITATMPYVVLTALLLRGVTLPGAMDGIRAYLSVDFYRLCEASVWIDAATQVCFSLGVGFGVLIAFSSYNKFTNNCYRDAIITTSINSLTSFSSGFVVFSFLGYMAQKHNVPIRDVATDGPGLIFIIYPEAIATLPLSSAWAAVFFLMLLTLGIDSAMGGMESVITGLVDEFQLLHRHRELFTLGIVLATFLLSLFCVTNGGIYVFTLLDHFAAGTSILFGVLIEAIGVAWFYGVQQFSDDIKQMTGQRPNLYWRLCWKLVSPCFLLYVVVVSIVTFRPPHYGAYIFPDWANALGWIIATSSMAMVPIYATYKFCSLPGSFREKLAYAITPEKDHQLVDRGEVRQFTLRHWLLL

Sequence of Sodium-dependent serotonin transporter (P31652 whole entry): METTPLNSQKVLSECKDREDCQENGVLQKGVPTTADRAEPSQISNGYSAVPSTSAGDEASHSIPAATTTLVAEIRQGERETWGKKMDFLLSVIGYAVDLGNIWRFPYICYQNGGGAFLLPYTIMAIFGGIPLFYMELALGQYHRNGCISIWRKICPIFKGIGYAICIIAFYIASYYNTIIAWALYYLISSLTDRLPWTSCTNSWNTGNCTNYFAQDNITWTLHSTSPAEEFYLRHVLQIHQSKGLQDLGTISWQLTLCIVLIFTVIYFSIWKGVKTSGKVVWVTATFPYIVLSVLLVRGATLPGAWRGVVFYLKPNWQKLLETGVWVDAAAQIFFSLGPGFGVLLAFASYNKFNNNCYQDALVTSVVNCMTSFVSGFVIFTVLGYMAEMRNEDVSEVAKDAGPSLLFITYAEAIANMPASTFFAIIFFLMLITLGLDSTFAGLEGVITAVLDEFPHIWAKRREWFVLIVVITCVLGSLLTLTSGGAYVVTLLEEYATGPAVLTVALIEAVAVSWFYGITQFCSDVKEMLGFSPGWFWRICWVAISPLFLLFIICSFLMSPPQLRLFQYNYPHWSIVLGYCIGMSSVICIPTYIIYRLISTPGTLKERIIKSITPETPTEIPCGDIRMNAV

Structure (SMILES)	Ratio pKi [1]	Ki [2]	Ki [3]
CCCN1CCN(CCOC(c2ccc(F)cc2)c2ccc(F)cc2)CC1	1.35		
Fc1ccc(C(OCCN2CCN(Cc3cc4ccccc4s3)CC2)c2ccc(F)cc2)cc1	2.08	0.495 µM	0.0041 µM
Fc1ccc(C(OCCC2CCN(Cc3cc4ccccc4[nH]3)CC2)c2ccc(F)cc2)cc1	2.08	0.088 µM	0.00073 µM
O[C@H]1c2ccccc2CC[C@@H]1CN1CCN(CCOC(c2ccc(F)cc2)c2ccc(F)cc2)CC1	0.25	0.032 µM	0.018 µM
Fc1ccc(C(OCCC2CCN(Cc3cccc4ccccc34)CC2)c2ccc(F)cc2)cc1	1.36		
Fc1ccc(C(OCCC2CCN(Cc3ccc(Br)cc3)CC2)c2ccc(F)cc2)cc1	2.26		
Fc1ccc(C(OCCC2CCN(Cc3ccc(C(F)(F)F)cc3)CC2)c2ccc(F)cc2)cc1	2.6		
Fc1ccc(C(OCCN2CCN(Cc3cc4ccccc4o3)CC2)c2ccc(F)cc2)cc1	1.65	0.286 µM	0.0064 µM
Fc1ccc(C(OCCC2CCN(CC#Cc3ccccc3)CC2)c2ccc(F)cc2)cc1	1.49	0.164 µM	0.0053 µM
O=[N+]([O-])c1ccc(CN2CCC(CCOC(c3ccc(F)cc3)c3ccc(F)cc3)CC2)cc1	2.51		
Fc1ccc(C(OCCC2CCN(Cc3ccc(Cl)cc3)CC2)c2ccc(F)cc2)cc1	2.3		
Fc1ccc(C(OCCN2CCN(CC34CC5CC(CC(C5)C3)C4)CC2)c2ccc(F)cc2)cc1	0.78	0.598 µM	0.1 µM
Fc1ccc(C(OCCN2CCN(Cc3cc4ccccc4[nH]3)CC2)c2ccc(F)cc2)cc1	2.23	0.119 µM	0.0007 µM
N#Cc1ccc(CN2CCC(CCOC(c3ccc(F)cc3)c3ccc(F)cc3)CC2)cc1	2.7		
Fc1ccc(C(OCCC2CCN(Cc3cc4ccccc4s3)CC2)c2ccc(F)cc2)cc1	2.18	0.246 µM	0.00161 µM
COc1ccccc1CN1CCC(CCOC(c2ccc(F)cc2)c2ccc(F)cc2)CC1	0.6		
Fc1ccc(C(OCCN2CCN(Cc3ccc4ccccc4n3)CC2)c2ccc(F)cc2)cc1	-0.04	0.051 µM	0.056 µM
Fc1ccc(C(OCCC2CCN(Cc3cc4ccccc4o3)CC2)c2ccc(F)cc2)cc1	1.93	0.085 µM	0.00101 µM
Fc1ccc(C(OCCN2CCN(Cc3cccc4ccccc34)CC2)c2ccc(F)cc2)cc1	0.89	0.243 µM	0.031 µM
Fc1ccc(C(OCCC2CCN(C[C@@H]3Cc4ccccc4CN3)CC2)c2ccc(F)cc2)cc1	1	0.0481 µM	0.00477 µM
Fc1ccc(C(OCCN2CCN(Cc3cnc4ccccc4c3)CC2)c2ccc(F)cc2)cc1	1.48	0.485 µM	0.0161 µM
CCN1CCN(CCOC(c2ccc(F)cc2)c2ccc(F)cc2)CC1	1.79		
C=CCN1CCN(CCOC(c2ccc(F)cc2)c2ccc(F)cc2)CC1	1.41		

Structure (SMILES)	Ratio pKi [1]	Ki [2]	Ki [3]
O=C1CCCCC1CN1CCN(CCOC(c2ccc(F)cc2)c2ccc(F)cc2)CC1 (racemic)	1.29	1.69 µM	0.087 µM
Fc1ccc(CN2CCC(CCOC(c3ccc(F)cc3)c3ccc(F)cc3)CC2)cc1	2.03		
Fc1ccc(C(OCCC2CCN(Cc3ccc(I)cc3)CC2)c2ccc(F)cc2)cc1	1.99		
Fc1ccc(C(OCCN2CCN(CC3=Cc4ccccc4CC3)CC2)c2ccc(F)cc2)cc1	1.61		
Fc1ccc(C(OCCC2CCN(C[C@H]3C[C@@H]3c3ccccc3)CC2)c2ccc(F)cc2)cc1	2.02	0.136 µM	0.0013 µM
COc1cccc(CN2CCC(CCOC(c3ccc(F)cc3)c3ccc(F)cc3)CC2)c1	1.08		
COc1ccc(CN2CCC(CCOC(c3ccc(F)cc3)c3ccc(F)cc3)CC2)cc1	1.53		
Fc1ccc(C(OCCC2CCN(Cc3ccccc3)CC2)c2ccc(F)cc2)cc1	1.24		
O=C1CCCCCC1CN1CCN(CCOC(c2ccc(F)cc2)c2ccc(F)cc2)CC1 (racemic)	1.03		
O=C1c2ccccc2CCC1CN1CCN(CCOC(c2ccc(F)cc2)c2ccc(F)cc2)CC1 (racemic)	0.29		
O=C1CCCC1CN1CCN(CCOC(c2ccc(F)cc2)c2ccc(F)cc2)CC1 (racemic)	1.06		
Fc1ccc(C(OCCC2CCN(Cc3ccc4ccccc4c3)CC2)c2ccc(F)cc2)cc1	2.51		0.00071 µM
O[C@H]1c2ccccc2CC[C@H]1CN1CCN(CCOC(c2ccc(F)cc2)c2ccc(F)cc2)CC1	1.36		
Cc1ccc(CN2CCC(CCOC(c3ccc(F)cc3)c3ccc(F)cc3)CC2)cc1	1.62		
COc1ccc2c(c1)CCC(CN1CCN(CCOC(c3ccc(F)cc3)c3ccc(F)cc3)CC1)C2=O (racemic)	-0.87		
Fc1ccc(C(OCCC2CCN(C[C@@H]3C[C@H]3c3ccccc3)CC2)c2ccc(F)cc2)cc1	1.44	0.022 µM	0.0008 µM
Fc1ccc(C(OCCN2CCN(CCCCl)CC2)c2ccc(F)cc2)cc1	0.91	0.338 µM	0.042 µM
Fc1ccc(C(OCCC2CCN(C[C@H]3Cc4ccccc4CN3)CC2)c2ccc(F)cc2)cc1	0.21	0.0152 µM	0.00932 µM
COc1ccc2c(c1)CCC(CN1CCN(CCOC(c3ccc(F)cc3)c3ccc(F)cc3)CC1)=C2	0.03		0.053 µM
COc1ccc2c(c1)CC[C@@H](CN1CCN(CCOC(c3ccc(F)cc3)c3ccc(F)cc3)CC1)[C@H]2O	-0.67		0.014 µM
Fc1ccc(C(OCCN2CCN(Cc3ccc4ncccc4c3)CC2)c2ccc(F)cc2)cc1	0.95	0.551 µM	0.0618 µM
Fc1ccc(C(OCCN2CCN(Cc3ccc4ccccc4c3)CC2)c2ccc(F)cc2)cc1	1.59	0.312 µM	0.008 µM
Fc1ccc(C(OCCN2CCN(CC#Cc3ccccc3)CC2)c2ccc(F)cc2)cc1	1.12	0.266 µM	0.02 µM

From ChEMBL document CHEMBL1140599, “DAT/SERT selectivity of flexible GBR 12909 analogs modeled using 3D-QSAR methods” (Bioorg Med Chem, 2007)
